Entries after “also recorded” stand apart in the source; their conditions may differ. fluorescein = fluorescein label at the N-terminus
Assays:
[1] = tested on: root tip, leaf tip, leaf base and coleoptile; details: 5 μM fluorescently labeled peptide
Method: Triticale seeds were washed with detergent and grown on moist cotton for one week. The root tip, leaf tip, leaf base and coleoptile were excised and incubated with 5 μM of fluorescently labeled pVEC, scrambled pVEC and transportan.

[2] = tested on: immature embryos; assay: Fluorimetry analysis of relative fluorescence uptake by embryos; assay type: cell-based, Triticale cv AC Alta; details: permeabilized and non-permeabilized embryos
Method: (§1) The embryos were isolated from spikes two weeks post-anthesis (scutellum diameter 1-2 mm). The immature seeds were surface sterilized with 70% ethanol for 30 s followed by treatment with 10% hypochlorite (Chlorex) and a drop of Tween 20, 3 min. Four washings of 1 min each were given with sterile water. The embryos were hand dissected under sterile conditions. Isolated embryos were placed on GEM medium (Eudes et al, 2003) for 24 h in dark at room temperature prior to CPP translocation studies.
Isolated and sterilized embryos (20-25) were imbibed in total volume of 420 μl permeabilization buffer (15 mM sodium chloride, 1.5 mM sodium citrate, pH 7.1) containing cellular permeabilization agent toluene/ethanol (1:4) in 1:20 ratio with permeabilization buffer. To this 2.1 μl of 1 mM fluoresceinated CPP was added to give a final concentration of 5 μM. […] Embryos were washed two times with permeabilization buffer and subjected either for fluorescence microscopy or spectrofluorimetric analysis.
For fluorimetric analysis, the embryos were treated with 500 μl of 1% Triton X-100 (prepared in permeabilization buffer), 30 min, at 4° C. The supernatant was collected in a fresh tube and relative fluorescence uptake by the embryos with different CPPs was estimated by fluorimeter (Biorad, Versafluor, USA Excitation 490/Emission 520).

[3] = tested on: immature embryos; assay: Translocation of fluoresceinated CPPs in zygotic embryos, fluorescence microscopy; assay type: cell-based, Triticale cv AC Alta
Method: as §1
Isolated and sterilized embryos (20-25) were imbibed in total volume of 420 μl permeabilization buffer (15 mM sodium chloride, 1.5 mM sodium citrate, pH 7.1) containing cellular permeabilization agent toluene/ethanol (1:4) in 1:20 ratio with permeabilization buffer. To this 2.1 μl of 1 mM fluoresceinated CPP was added to give a final concentration of 5 μM. In negative controls, the embryos were treated with FITC-dextran sulphate or M-Tat. The embryos were incubated in the permeabilization mix for 1 h in dark at room temperature, followed by two washings with permeabilization buffer. The embryos were then treated with trypsin:EDTA (0.25% solution, Sigma-Aldrich) in 1:2 ratio with permeabilization buffer for 5 min at room temperature to remove free peptide molecules. Embryos were washed two times with permeabilization buffer and subjected either for fluorescence microscopy or spectrofluorimetric analysis.

[4] = tested on: isolated microspores; assay: Uptake of fluoresceinated Tat by isolated microspores; assay type: cell-based; details: no permeabilization
Method: However, permeabilization is not necessary for all cell types. FIG. 2 illustrates the uptake of fluoresceinated Tat by isolated microspores.
Isolated microspores were prepared as described by Amundsen and Eudes, 2005.

[5] = tested on: Triticale microspores; assay: DNA-protein co-delivery in microspores, GUS histochemical assay of embryos; assay type: cell-based; details: 2 months after transfection
Method: Triticale tillers for microspore isolation were kept in the refrigerator (4° C.) for 3 weeks with their bases in distilled water and their heads wrapped in aluminum foil. After 3 weeks±3 days, the mid to late uninucleate microspore stage was verified from a median floret using acetocarmine staining prior to extraction. Isolated microspore was carried in Triticale as published in Eudes and Amundsen (2005) for obtaining purified microspore suspension adjusted to 2.5×10^5 cells per ml of NPB99 medium.
The plasmid (pAct-1 GUS, ˜7.2 kb) was linearized with PstI restriction enzyme and DNA was purified by PCR product purification kit (QIAquick, Qiagen, USA). The GUS DNA was delivered following 7 different treatments (T). […]

[6] = tested on: isolated microspores of Triticale (variety Sunray); assay: CPP delivery of GUS enzyme into isolated microspores, GUS staining; assay type: cell-based; details: GUS enzyme cargo:CPP 1:4, 1 hour at 37° C., three repeats
Method: Triticale line Sunray grown in a growth cabinet with a photoperiod of 19 h day (intensity 300 μE m-2 s-1), and temperature 18-15° C. (day-night) with a relative humidity at about 70% was used as the donor plant material. The plants were fertilized every 2 weeks (20-20-20, 200 ppm) and treated with 2.5 ml I-1 Tilt™ (propiconazole, Syngenta) during the tillering stage and Intercept™ (0.004 g per litre of soil, Imidacloprid, Bayer) once sufficient root development was established. The first 10 tillers from each pot were harvested when the spike was at 3-4 cm, depending on the crop, from emergence from the boot. These tillers (to be used for microspore isolation) were subjected to pre-treatment in a refrigerator (4° C.) for 21 days with their bases in distilled water and their heads wrapped in aluminum foil. After 21±3 days of pre-treatment, the spikes were excised from their tillers and after an evaluation of their general appearance, only the most homogenous spikes were used. After confirming microspores at mid to bi-nucleate stage from a median floret, using acetocarmine staining, the tillers were processed for extraction.
Awns were removed with scissors in a laminar flow hood. Eight-fourteen spikes were used for microspore isolation. They were sterilized with 10% bleach (5.25% sodium hypochlorite) for 3 min followed by rinsing in sterile double distilled water four times of 1 min each with constant agitation. Outer glumes were removed and florets from all the spikes were aseptically dissected and transferred to a sterile and refrigerated 110 ml Warring blender cup (VWR international, #58983-093) containing 50 ml filter sterilized extraction buffer at 4° C. Florets were then blended twice for 7 s at low speed (18000 rpm). The slurry was then poured through a 1 mm sieve followed by pouring through a 100 μm sterile mesh (VWR International, #CA21008-950) into two 50 ml centrifuge tubes (25 ml each). The blender cup was rinsed with 50 ml extraction buffer at 4° C. and poured through the 100 μm mesh and was added to the first aliquot in the 50 ml tubes. The cells were then pelleted by centrifugation (100×g for 5 min at 4° C.) using a swinging bucket rotor. After pouring off the supernatant, the microspore-containing pellets were pooled together in one 50 ml tube and re-suspended in 50 ml cold extraction buffer. The cells were pelleted again with centrifugation (100×g for 5 min at 4° C.), the supernatant poured off and the pellet was transferred to a 15 ml tube. After re-suspending the pellet in CIMC Wash Buffer supplemented with 10 microM SS-31 peptide, it was subjected to wash and centrifugation using the above conditions. The supernatant was removed and the pellet was re-suspended in CIMC Wash buffer and centrifugation was repeated as above. The pellet was then suspended in 7 mL of 20% maltose at 4° C., layered with 1 mL of CIMC wash buffer and was centrifuged at 100 g for 13 min at 4° C. A band of microspores formed at the interface was collected in a new 15 ml tube. The cells were diluted with CIMC wash solution and subsequently collected by centrifugation at 150 g for 5 min. The supernatant was removed and the cells were finally suspended in a total volume of 1.4 ml of appropriate solution. After counting the cells using a haemocytometer, aliquots of 100,000 cells in 200 μl volume were prepared in 2 ml microcentrifuge tubes to be ready for transduction.
Peptide stock solutions were made in water at 1 μg/μl concentration. CPP (Nanocarrier) and GUS enzyme (cargo) were first prepared in separate microcentrifuge tubes. A total of 4 μg of CPP was prepared in sterile water to a final volume of 100 μl. Similarly, 1 μg of GUS enzyme was added to sterile water to a final volume of 100 μl. The contents of the two tubes were mixed together giving a ratio of 1:4 protein cargo:CPP. The complex was incubated for 30 min at room temperature (RT). Chariot (PAP1) protein delivering reagent was used as a positive control in the experiments. […]

FI-GWTLNSAGYLLGKINLKALAALAKKIL-amide [Transportan]
Fluorescence in excised seedling tissues [1]: maximum florescence
Translocation by fluorimetric analysis compared with visual observation [2]: relatively greater translocation

FI-RKKRRQRRR-amide (fluorescein-RKKRRQRRR-NH2) [TAT-PTD]
Uptake seen by fluorescence microscopy (FIG. 1) ([3]; in the presence of cellular permeabilizing agent (toluene)): most significant uptake; also recorded: distinct layer of accumulation in the scutellum and localized accumulation in the germ area
Uptake seen by fluorescence microscopy (FIG. 1) ([3]; without cellular permeabilizing agent): some fluorescence
Uptake of fluoresceinated peptide by isolated microspores (FIG. 2) [4]: can penetrate into cells

RKKRRQRRRRKKRRQRRR (TAT2) [18 amino acid dimer of the PTD of HIV Tat, reference compound]
Highest numbers of embryos that showed GUS [5]: 25.8%
Average Transduction Efficiency [6]: 17.50%
